Experimental data published in PubChem BioAssay AID248 (DTP/NCI, 2004).
Where “and” joins values, the source holds several entries; their conditions need not be identical. Equal entries are not always repeated. Toxic doses and inconclusive results are not listed. Cut-off read from the data, not from the text of the source: active = T/C of 150% or more; inactive = T/C below 125%.

Tested on: L1210 leukemia ip in BDF1 mice, survival T/C
Assay: NCI In Vivo Anticancer Drug Screen. Data for tumor model L1210 Leukemia (intraperitoneal) in B6D2F1 (BDF1) mice
Conditions: endpoint: mean survival time, higher = longer survival
Summary of the method: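 In this screen, tumor-bearing mice given compound are compared to those given vehicle, and their survival values are reported as a treated-to-control quotient.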

[1] = dose: 100.0 mg/kg/injection, schedule: Q01DX009 (ip), vehicle: saline with Tween-80
[2] = dose: 100.0 mg/kg/injection, schedule: Q04DX002 (ip), vehicle: Klucel (hydroxypropylcellulose) (HPC)
[3] = dose: 200.0 mg/kg/injection, schedule: Q01DX009 (ip), vehicle: saline with Tween-80
[4] = dose: 200.0 mg/kg/injection, schedule: Q04DX002 (ip), vehicle: Klucel (hydroxypropylcellulose) (HPC)
[5] = dose: 400.0 mg/kg/injection, schedule: Q01DX009 (ip), vehicle: saline with Tween-80
[6] = dose: 100.0 mg/kg/injection, schedule: Q01DX001 (ip), vehicle: saline
[7] = dose: 100.0 mg/kg/injection, schedule: Q01DX001 (ip), vehicle: Klucel (hydroxypropylcellulose) (HPC)
[8] = dose: 200.0 mg/kg/injection, schedule: Q01DX001 (ip), vehicle: Klucel (hydroxypropylcellulose) (HPC)
[9] = dose: 400.0 mg/kg/injection, schedule: Q01DX001 (ip), vehicle: Klucel (hydroxypropylcellulose) (HPC)
[10] = dose: 200.0 mg/kg/injection, schedule: Q01DX001 (ip), vehicle: saline
[11] = dose: 50.0 mg/kg/injection, schedule: Q04DX003 (ip), vehicle: saline
[12] = dose: 100.0 mg/kg/injection, schedule: Q04DX003 (ip), vehicle: saline
[13] = dose: 200.0 mg/kg/injection, schedule: Q04DX003 (ip), vehicle: saline
[14] = dose: 400.0 mg/kg/injection, schedule: Q04DX003 (ip), vehicle: saline
[15] = dose: 100.0 mg/kg/injection, schedule: Q01DX009 (ip), vehicle: Klucel (hydroxypropylcellulose) (HPC)
[16] = dose: 200.0 mg/kg/injection, schedule: Q01DX009 (ip), vehicle: Klucel (hydroxypropylcellulose) (HPC)
[17] = dose: 400.0 mg/kg/injection, schedule: Q01DX009 (ip), vehicle: Klucel (hydroxypropylcellulose) (HPC)
[18] = dose: 400.0 mg/kg/injection, schedule: Q01DX001 (ip), vehicle: saline

Measured: T/C

O=[N+]([O-])c1ccc(SSc2ccc([N+](=O)[O-])cc2)cc1
inactive: [1] 95 % of control | [2] 115 % of control | [3] 87 % of control | [4] 100 % of control | [5] 94 % of control | dose: 400.0 mg/kg/injection, schedule: Q04DX002 (ip), vehicle: Klucel (hydroxypropylcellulose) (HPC) 86 % of control

CC(=O)[C@@]1(O)CC[C@H]2[C@@H]3CCC4=CC(=O)CC[C@]4(C)[C@@]3(F)[C@@H](O)C[C@@]21C
inactive: dose: 100.0 mg/kg/injection, schedule: Q01DX Z (sc), vehicle: steriod suspending solution 98 % of control | dose: 200.0 mg/kg/injection, schedule: Q01DX Z (sc), vehicle: steriod suspending solution 98 % of control | dose: 400.0 mg/kg/injection, schedule: Q01DX Z (sc), vehicle: steriod suspending solution 100 % of control

COC(=O)C1C(O)CCC2CN3CCc4c([nH]c5ccccc45)C3CC21 (configuration not stated)
inactive: dose: 50.0 mg/kg/injection, schedule: Q01DX001 (ip), vehicle: saline 102 % of control | dose: 75.0 mg/kg/injection, schedule: Q01DX Z (ip), vehicle: carboxymethylcellulose (CMC) 92 % of control | [6] 91 % of control | dose: 150.0 mg/kg/injection, schedule: Q01DX Z (ip), vehicle: carboxymethylcellulose (CMC) 100 % of control

Cc1ccc(NNS(=O)(=O)c2cccc([N+](=O)[O-])c2)c(Br)c1
inactive: [7] 96 % of control | dose: 100.0 mg/kg/injection, schedule: Q04DX003 (ip), vehicle: Klucel (hydroxypropylcellulose) (HPC) 102 % of control | [8] 94 % of control | dose: 200.0 mg/kg/injection, schedule: Q04DX003 (ip), vehicle: Klucel (hydroxypropylcellulose) (HPC) 96 % of control | [9] 100 % of control | dose: 400.0 mg/kg/injection, schedule: Q04DX003 (ip), vehicle: Klucel (hydroxypropylcellulose) (HPC) 96 % of control

CC1(C)OC(=O)C2CCCCC21 (configuration not stated)
inactive: dose: 25.0 mg/kg/injection, schedule: Q01DX009 (ip), vehicle: saline 89 % of control | dose: 50.0 mg/kg/injection, schedule: Q01DX009 (ip), vehicle: saline 93 % of control | [6] 97 % of control | [10] 90 % of control

Cc1nc2ccc(N(C)C)cc2c2c1Cc1c(C)nc3ccc(N(C)C)cc3c1O2
inactive: [1] 95 % of control | [3] 92 % of control | [5] 110 % of control

Nc1cccc(CCCCOc2ccccc2)c1
inactive: [1] 97 % of control | dose: 100.0 mg/kg/injection, schedule: Q04DX003 (ip), vehicle: saline with Tween-80 97 % of control | [3] 98 % of control | dose: 200.0 mg/kg/injection, schedule: Q04DX003 (ip), vehicle: saline with Tween-80 103 % of control | dose: 400.0 mg/kg/injection, schedule: Q04DX003 (ip), vehicle: saline with Tween-80 105 % of control

CCCCC1CCC(N)CC1 (configuration not stated)
inactive: dose: 25.0 mg/kg/injection, schedule: Q04DX003 (ip), vehicle: saline 105 % of control | [11] 100 % of control | [12] 105 % of control

C#CC(C)(C)OCC(CCl)OC(N)=O (configuration not stated)
inactive: [11] 98 % of control | [12] 96 % of control | [13] 101 % of control | [14] 104 % of control

O=C(Nc1ccc(C2=NCCN2)cc1)Nc1ccccc1NC(=O)Nc1ccc(C2=NCCN2)cc1
inactive: dose: 3.12 mg/kg/injection, schedule: Q01DX Z (ip), vehicle: water 100 % of control | dose: 6.25 mg/kg/injection, schedule: Q01DX Z (ip), vehicle: water 117 % of control | dose: 12.5 mg/kg/injection, schedule: Q01DX Z (ip), vehicle: water 105 % of control

CN1N=C(c2ccccc2)CC1=O
inactive: [7] 103 % of control | [8] 108 % of control | [9] 97 % of control

COc1ccc(NC(=S)Nc2ccc(-c3ccc(NC(=S)Nc4ccc(OC)cc4)cc3)cc2)cc1
inactive: [2] 87 % of control | [4] 87 % of control

COc1cc(/C=N/N=C(\C)c2ccc3ccccc3c2)cc(OC)c1OC
inactive: [15] 90 % of control | [16] 94 % of control | [17] 100 % of control

CC(=O)C12OC(C)(C)OC1CC1C3CCC4=CC(=O)C=CC4(C)C3(F)C(O)CC12C (configuration not stated)
inactive: dose: 12.5 mg/kg/injection, schedule: Q04DX002 (ip), vehicle: Klucel (hydroxypropylcellulose) (HPC) 104 % of control | dose: 25.0 mg/kg/injection, schedule: Q04DX002 (ip), vehicle: Klucel (hydroxypropylcellulose) (HPC) 107 % of control | dose: 50.0 mg/kg/injection, schedule: Q04DX002 (ip), vehicle: Klucel (hydroxypropylcellulose) (HPC) 107 % of control

CCNC(C)(C)C(SSS)c1ccco1 (configuration not stated)
inactive: dose: 12.5 mg/kg/injection, schedule: Q01DX009 (ip), vehicle: gum acacia 90 % of control | dose: 25.0 mg/kg/injection, schedule: Q01DX009 (ip), vehicle: gum acacia 88 % of control | dose: 50.0 mg/kg/injection, schedule: Q01DX009 (ip), vehicle: gum acacia 90 % of control | dose: 100.0 mg/kg/injection, schedule: Q04DX003 (ip), vehicle: gum acacia 95 % of control | dose: 200.0 mg/kg/injection, schedule: Q04DX003 (ip), vehicle: gum acacia 95 % of control | dose: 400.0 mg/kg/injection, schedule: Q04DX003 (ip), vehicle: gum acacia 107 % of control

CC(=O)Nc1ccc2c(c1)-c1ccc(F)cc1C2
inactive: dose: 100.0 mg/kg/injection, schedule: Q01DX001 (ip), vehicle: carboxymethylcellulose (CMC) 94 % of control | dose: 200.0 mg/kg/injection, schedule: Q01DX001 (ip), vehicle: carboxymethylcellulose (CMC) 96 % of control | dose: 400.0 mg/kg/injection, schedule: Q01DX001 (ip), vehicle: carboxymethylcellulose (CMC) 102 % of control

O=C(Nc1ccc(Cl)c(Cl)c1)c1ccc(C(=O)Nc2ccc(Cl)c(Cl)c2)cc1
inactive: [15] 91 % of control | [16] 92 % of control | [17] 86 % of control

O=C(O)Cc1ccc2c(c1)C(=O)C(=O)N2
inactive: [12] 95 % of control | [13] 102 % of control | [14] 89 % of control

N=c1ccn(O)cc1[N+](=O)[O-]
inactive: [6] 108 % of control | [10] 120 % of control | [18] 114 % of control

C1OCC2OC12 (configuration not stated)
inactive: dose: 100.0 mg/kg/injection, schedule: Q01DX009 (ip), vehicle: saline 97 % of control and 88 % of control | dose: 100.0 mg/kg/injection, schedule: Q04DX002 (ip), vehicle: saline 97 % of control and 102 % of control | [12] 101 % of control | dose: 200.0 mg/kg/injection, schedule: Q01DX009 (ip), vehicle: saline 100 % of control and 87 % of control | dose: 200.0 mg/kg/injection, schedule: Q04DX002 (ip), vehicle: saline 100 % of control and 101 % of control | [13] 109 % of control | dose: 400.0 mg/kg/injection, schedule: Q01DX009 (ip), vehicle: saline 105 % of control and 87 % of control | dose: 400.0 mg/kg/injection, schedule: Q04DX002 (ip), vehicle: saline 104 % of control and 111 % of control | [14] 101 % of control

CC(C)(C)OC(=O)COc1cccc([N+](=O)[O-])c1
inactive: [15] 114 % of control | [16] 102 % of control | [17] 100 % of control

CC(C)(CO)N(CC(=O)O)CC(=O)O
inactive: [6] 101 % of control | [10] 103 % of control

CCCCCOC(=O)C(C(=O)OCCCCC)(C(=O)OCCCCC)C(=O)OCCCCC
inactive: [6] 100 % of control | [10] 104 % of control | [18] 95 % of control
